Measured values: ChEMBL document CHEMBL3108776, “Discovery of Small Molecule RIP1 Kinase Inhibitors for the Treatment of Pathologies Associated with Necroptosis” (ACS Med Chem Lett, 2013)
Converted amounts (≈) assume the structure as drawn.

Tests used:
[1] = biological target: T1, Receptor-interacting serine/threonine-protein kinase 1 (Homo sapiens, UniProt Q13546); experiment: Inhibition of human N-terminal His-GST-TEV-fused RIP1 kinase domain (1 to 375) autophosphorylation expressed in baculovirus infected insect Sf9 cells after 4 hrs by ADP-Glo luminescence assay
T1 sequence (Q13546 whole entry): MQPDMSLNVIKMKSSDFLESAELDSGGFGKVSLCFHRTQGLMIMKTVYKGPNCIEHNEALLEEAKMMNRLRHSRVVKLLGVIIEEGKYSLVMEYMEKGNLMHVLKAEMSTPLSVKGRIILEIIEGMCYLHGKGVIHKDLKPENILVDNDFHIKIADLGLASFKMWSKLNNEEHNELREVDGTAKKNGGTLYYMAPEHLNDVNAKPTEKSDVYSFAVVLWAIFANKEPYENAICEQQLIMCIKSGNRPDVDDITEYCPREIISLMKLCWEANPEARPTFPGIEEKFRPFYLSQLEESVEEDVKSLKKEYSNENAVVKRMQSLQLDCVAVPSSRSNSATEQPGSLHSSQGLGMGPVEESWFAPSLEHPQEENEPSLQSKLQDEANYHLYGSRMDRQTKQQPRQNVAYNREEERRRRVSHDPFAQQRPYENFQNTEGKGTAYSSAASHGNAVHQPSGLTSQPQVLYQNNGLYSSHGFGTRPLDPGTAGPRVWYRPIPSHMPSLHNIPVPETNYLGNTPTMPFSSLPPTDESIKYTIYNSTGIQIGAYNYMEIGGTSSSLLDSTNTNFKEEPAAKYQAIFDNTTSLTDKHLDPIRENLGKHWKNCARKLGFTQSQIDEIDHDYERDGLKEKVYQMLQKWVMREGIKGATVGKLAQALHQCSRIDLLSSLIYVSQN

[2] = biological target: T1, Receptor-interacting serine/threonine-protein kinase 1; experiment: Displacement of (14-(2-{[3-({2-{[4-(cyanomethyl)phenyl]amino}-6-[(5-cyclopropyl-1H-pyrazol-3-yl)amino]-4-pyrimidinyl}amino)propyl]amino}-2-oxoethyl)-16,16,18,18-tetramethyl-6,7,7a,8a,9,10,16,18-octahydrobenzo[2'',3'']indolizino[8'',7'':5',6']pyrano[3',2':3,4]pyrido[1,2-a]indol-5-ium-2-sulfonate from human N-terminal His-GST-TEV-fused RIP1 kinase domain (1 to 375) expressed in baculovirus infected insect Sf9 cells preincubated for 10 mins followed by fluorescent ligand addition measured after 15 mins by fluorescence polarization assay
[3] = Permeability of the compound; type: ADME; conditions: not told; read-out: permeability
Mus musculus [4] = experiment: Antiinflammatory activity in mouse TNFalpha-induced lethal shock model assessed as protection from body temperature loss at 20 mg/kg, po administered 15 mins prior to TNFalpha challenge measured over 7 hrs relative to TNFalpha-treated control; type: functional
Mus musculus [5] = experiment: Antiinflammatory activity in po dosed mouse TNFalpha-induced lethal shock model assessed as protection from body temperature loss administered 15 mins prior to TNFalpha challenge measured over 7 hrs; type: functional, organism-based
[6] = AUC in C57BL/6 mouse at 2 mg/kg, po measured at 4 hrs; type: ADME, organism-based; set-up: dose 2 mg/kg, route oral; conditions: plasma
Mus musculus [7] = experiment: Antiinflammatory activity in mouse TNFalpha-induced lethal shock model assessed as protection from body temperature loss at 0.2 mg/kg, po administered 15 mins prior to TNFalpha challenge measured over 7 hrs relative to TNFalpha-treated control; type: functional
[8] = Fraction unbound in mouse; type: ADME, organism-based; conditions: in vivo
[9] = Solubility of the compound; type: physicochemical
[10] = Cmax in C57BL/6 mouse at 2 mg/kg, po measured at 4 hrs; type: ADME, organism-based; set-up: dose 2 mg/kg, route oral; conditions: in vivo
Mus musculus [11] = experiment: Antiinflammatory activity in mouse TNFalpha-induced lethal shock model assessed as protection from body temperature loss at 2 mg/kg, po administered 15 mins prior to TNFalpha challenge measured over 7 hrs relative to TNFalpha-treated control; type: functional

| SMILES | IC50 [1] | IC50 [2] | also measured |
| --- | --- | --- | --- |
| Nc1ccc(-c2cnc3[nH]cc(-c4cccc(NC(=O)Nc5cc(C(F)(F)F)ccc5F)c4)c3c2)cc1 | 50 nM | 32 nM | – |
| Nc1nccc2c(-c3ccc(NC(=O)Nc4cc(C(F)(F)F)ccc4Cl)cc3)cccc12 | 630 nM | 3200 nM | – |
| Nc1ncnc2occ(-c3ccc(NC(=O)Nc4cc(C(F)(F)F)ccc4F)cc3)c12 [GW770249X] | – | – | Papp [3]: 21 ×10⁻⁶ cm/s; Activity (Mus musculus [4]): 77%; Activity (Mus musculus [5]): Dose-dependent effect; AUC at 4 h [6]: 14000 ng·h/mL; Activity (Mus musculus [7]): 15%; Fu [8]: 0.04%; solubility [9]: 13 µM (≈ 5.61 µg/mL); Cmax [10]: 1100 ng/mL; Activity (Mus musculus [11]): 22% |
| O=C(Nc1cccc(-c2c[nH]c3ncc(-c4ccccc4)cc23)c1)Nc1cc(C(F)(F)F)ccc1F | 80 nM | 200 nM | – |
| CS(=O)(=O)c1cccc(-c2cnc3[nH]cc(-c4cccc(NC(=O)Nc5cc(C(F)(F)F)ccc5F)c4)c3c2)c1 | 10 nM | 63 nM | – |
| Nc1ncnc2occ(-c3ccc(NC(=O)Nc4ccc(F)c(C(F)(F)F)c4)cc3)c12 | 500 nM | 160 nM | – |
| CCc1cccc(NC(=O)Nc2ccc(-c3coc4ncnc(N)c34)cc2)c1 | 10 nM | 25 nM | – |
| NC(=O)c1cccc(-c2cnc3[nH]cc(-c4cccc(NC(=O)Nc5cc(C(F)(F)F)ccc5F)c4)c3c2)c1 | 10 nM | 16 nM | – |
| O=C(Nc1cccc(-c2c[nH]c3ncc(-c4ccccc4)cc23)c1)Nc1cccc(C(F)(F)F)c1 | 32 nM | 32 nM | – |
| Nc1ncnc2occ(-c3ccc(NC(=O)Nc4ccc5ccccc5c4)cc3)c12 | – | 100 nM | – |
| O=C(Nc1cccc(-c2c[nH]c3ncc(-c4ccccc4)cc23)c1)Nc1cccc([N+](=O)[O-])c1 | 16 nM | 16 nM | – |
| Nc1ncnc2occ(-c3ccc(NC(=O)Nc4cc(C(F)(F)F)ccc4Cl)cc3)c12 | 2500 nM | > 10000 nM | – |
| Nc1nccc2c(-c3ccc(NC(=O)Nc4cc(C(F)(F)F)ccc4F)cc3)cccc12 | 130 nM | 13 nM | – |
| O=C(Nc1ccccc1)Nc1cccc(-c2c[nH]c3ncc(-c4ccccc4)cc23)c1 | 400 nM | 1300 nM | – |

Further lines, with some results ahead:

| IC50 [1] | IC50 [2] | SMILES | also measured |
| --- | --- | --- | --- |
| 200 nM | 160 nM | Nc1ncnc2occ(-c3ccc(NC(=O)Nc4cccc(Cl)c4)cc3)c12 | – |
| 25 nM | 160 nM | Nc1nccc2c(-c3ccc(NC(=O)Nc4cc(F)cc(C(F)(F)F)c4)cc3)cccc12 | – |
| 10 nM | 320 nM | Nc1nccc2c(-c3ccc(NC(=O)Nc4ccc(F)c(C(F)(F)F)c4)cc3)cccc12 | – |
| 32 nM | 160 nM | Nc1ncnc2occ(-c3ccc(NC(=O)Nc4ccc(Cl)c(C(F)(F)F)c4)cc3)c12 | – |
| 6.3 nM | 32 nM | COc1cccc(NC(=O)Nc2cccc(-c3c[nH]c4ncc(-c5ccccc5)cc34)c2)c1 | – |
| 16 nM | 32 nM | CC(C)(C)c1cc(NC(=O)Nc2ccc(-c3coc4ncnc(N)c34)cc2)no1 | – |
| 160 nM | 40 nM | Nc1nccc2c(-c3ccc(NC(=O)Nc4ccc(Cl)c(C(F)(F)F)c4)cc3)cccc12 | – |
| 10 nM | 20 nM | Nc1ncnc2occ(-c3ccc(NC(=O)Nc4cccc(C(F)(F)F)c4)cc3)c12 [GW795493X] | – |
| 6 nM | 16 nM | O=C(Nc1cccc(-c2c[nH]c3ncc(-c4cn[nH]c4)cc23)c1)Nc1cc(C(F)(F)F)ccc1F | – |
| 32 nM | 320 nM | Nc1ncnc2occ(-c3ccc(NC(=O)Nc4cc(C(F)(F)F)cc(C(F)(F)F)c4)cc3)c12 [GW795486X] | – |
| 10 nM | 3.2 nM | CCS(=O)(=O)c1ccc(-c2cnc3[nH]cc(-c4cccc(NC(=O)Nc5cc(C(F)(F)F)ccc5F)c4)c3c2)cc1 | – |
| 25 nM | 20 nM | Nc1nccc2c(-c3ccc(NC(=O)Nc4cccc(C(F)(F)F)c4)cc3)cccc12 | – |
| 10 nM | 13 nM | CC(=O)c1cccc(NC(=O)Nc2cccc(-c3c[nH]c4ncc(-c5ccccc5)cc34)c2)c1 | – |
| 4000 nM | > 10000 nM | Nc1nccc2c(-c3ccc(NC(=O)Nc4cccc(C(F)(F)F)c4F)cc3)cccc12 | – |
| 500 nM | 2000 nM | O=C(Nc1cccc(-c2c[nH]c3ncc(-c4ccccc4)cc23)c1)NC1CCCC1 | – |
| 200 nM | 250 nM | Nc1ncnc2occ(-c3ccc(NC(=O)Nc4cccc(C(F)(F)F)c4F)cc3)c12 | – |
| 63 nM | 130 nM | Nc1ncnc2occ(-c3ccc(NC(=O)Nc4cc(F)cc(C(F)(F)F)c4)cc3)c12 | – |
| 4 nM | 7.9 nM | O=C(Nc1cccc(-c2c[nH]c3ncc(-c4cccnc4)cc23)c1)Nc1cc(C(F)(F)F)ccc1F | – |
